Results as given in patent US20250042886A1, “BIS(HETERO)ARYL THIOETHER OXADIAZINES AS FUNGICIDAL COMPOUNDS” (Bayer Aktiengesellschaft, priority 2021, published 2025).

Tests used:
Alternaria brassicae = assay: In vivo preventive test on Alternaria brassicae (leaf spot on radish or cabbage); settings: 500 ppm of active ingredient, sprayed on young radish or cabbage plants 24 h before inoculation, evaluated 3 to 4 days after inoculation, read-out: efficacy
Experimental: B-1. […] The active ingredients were made soluble and homogenized in a mixture of Dimethyl sulfoxide/Acetone//Tween® 80 and then diluted in water to the desired concentration. The young plants of radish or cabbage were treated by spraying the active ingredient prepared as described above. Control plants were treated only with an aqueous solution of Acetone/Dimethyl sulfoxide/Tween® 80. After 24 hours, the plants were contaminated by spraying the leaves with an aqueous suspension of Alternaria brassicae spores.

[1] = tested on: Colletotrichum lindemuthianum; assay: Colletotrichum lindemuthianum in vitro cell test; format: cell-based; settings: 144 h, liquid culture, 6 days incubation, read-out: efficacy (inhibition of fungal growth); for inhibition at 20 ppm: 20 ppm of active ingredient; for inhibition at 50 µM: 50 μMol/l of active ingredient
Experimental: (§1) B-7. Colletotrichum lindemuthianum In Vitro Cell Test • Solvent: DMSO • Culture medium: 14.6 g anhydrous D-glucose (VWR), 7.1 g Mycological Peptone (Oxoid), 1.4 g granulated Yeast Extract (Merck), QSP 1 liter • Inoculum: spores suspension Fungicides were solubilized in DMSO and the solution used to prepare the required range of concentrations. […] A spore suspension of C. lindemuthianum was prepared and diluted to the desired spore density. Fungicides were evaluated for their ability to inhibit spores germination and mycelium growth in liquid culture assay. The compounds were added in the desired concentration to the culture medium with spores. After 6 days incubation, fungi-toxicity of compounds was determined by spectrometric measurement of mycelium growth. Inhibition of fungal growth was determined by comparing the absorbance values in wells containing the fungicides with the absorbance in control wells without fungicides.

Botrytis cinerea [2] = assay: In vivo preventive test on Botrytis cinerea (grey mould); settings: 500 ppm of active ingredient, sprayed on young gherkin or cabbage plants 24 h before inoculation, evaluated 4 to 5 days after inoculation, read-out: efficacy
Experimental: The active ingredients were made soluble and homogenized in a mixture of Dimethyl sulfoxide/Acetone//Tween® 80 and then diluted in water to the desired concentration. The young plants of gherkin or cabbage were treated by spraying the active ingredient prepared as described above. Control plants were treated only with an aqueous solution of Acetone/Dimethyl sulfoxide/Tween® 80. After 24 hours, the plants were contaminated by spraying the leaves with an aqueous suspension of Botrytis cinerea spores.

[3] = Measurement of Log P values by HPLC on reversed phase columns (EEC directive 79/831 Annex V.A8); format: physicochemical; settings: Table 1, compounds of formula (I); method [a]: LC-UV, acidic range, 0.1% formic acid in water and acetonitrile
Botrytis cinerea [4] = assay: Botrytis cinerea in vitro cell test; format: cell-based; settings: 144 h, liquid culture, 6 days incubation, read-out: efficacy (inhibition of fungal growth); for inhibition at 20 ppm: 20 ppm of active ingredient; for inhibition at 50 µM: 50 μMol/l of active ingredient
Experimental: B-9. Botrytis cinerea In Vitro Cell Test • Solvent: DMSO • Culture medium: 1 g KH2PO4 (VWR), 1 g K2HPO4 (VWR), 0.5 g Urea (VWR), 3 g KNO3 (Prolabo), 10 g saccharose (VWR), 0.5 g MgSO4, 7H2O (Sigma), 0.07 g CaCl2, 2H2O (Prolabo), 0.2 mg MnSO4, H2O (Sigma), 0.6 mg CuSO4, 5H2O (Sigma), 7.9 mg ZnSO4, 7H2O (Sigma), 0.1 mg H3BO3 (Merck), 0.14 mg NaMoO4, 2H2O (Sigma), 2 mg thiamine (Sigma), 0.1 mg biotine (VWR), 4 mg FeSO4, 7H2O (Sigma), QSP 1 liter • Inoculum: spore suspension Fungicides were solubilized in DMSO and the solution used to prepare the required range of concentrations. […] A spore suspension of B. cinerea was prepared and diluted to the desired spore density. Fungicides were evaluated for their ability to inhibit spore germination and mycelium growth in liquid culture assay. The compounds were added in the desired concentration to the culture medium with spores. After 6 days incubation, fungi-toxicity of compounds was determined by spectrometric measurement of mycelium growth. Inhibition of fungal growth was determined by comparing the absorbance values in wells containing the fungicides with the absorbance in control wells without fungicides.

Alternaria alternata = Alternaria alternata in vitro cell test; format: cell-based; settings: 120 h, liquid culture, 5 days incubation, read-out: efficacy (inhibition of fungal growth); for inhibition at 50 µM: 50 μMol/l of active ingredient
Experimental: as §1, with “B-5. Alternaria alternata In” for “B-7. Colletotrichum lindemuthianum In”, “of A. alternata” for “of C. lindemuthianum”, “inhibit spore” for “inhibit spores”, “After 5” for “After 6”

Pyrenophora teres = Pyrenophora teres in vitro cell test; format: cell-based; settings: 144 h, liquid culture, 6 days incubation, read-out: efficacy (inhibition of fungal growth); for inhibition at 50 µM: 50 μMol/l of active ingredient
Experimental: as §1, with “B-8. Pyrenophora teres In” for “B-7. Colletotrichum lindemuthianum In”, “Inoculum: spore” for “Inoculum: spores”, “of P. teres” for “of C. lindemuthianum”, “inhibit spore” for “inhibit spores”

Pyricularia oryzae = assay: microbe, parasite or virus in culture; format: cell-based; settings: 120 h; for inhibition at 50 µM: read-out: efficacy (inhibition of fungal growth), 50 μMol/l of active ingredient, liquid culture, 5 days incubation
Fusarium culmorum = Fusarium culmorum in vitro cell test; format: cell-based; settings: 120 h, 50 μMol/l of active ingredient, liquid culture, 5 days incubation, read-out: efficacy (inhibition of fungal growth)
Experimental: B-10. Fusarium culmorum In Vitro Cell Test • Solvent: DMSO • Culture medium: 1 g KH2PO4 (VWR), 1 g K2HPO4 (VWR), 0.5 g Urea (VWR), 3 g KNO3 (Prolabo), 10 g saccharose (VWR), 0.5 g MgSO4, 7H2O (Sigma), 0.07 g CaCl2, 2H2O (Prolabo), 0.2 mg MnSO4, H2O (Sigma), 0.6 mg CuSO4, 5H2O (Sigma), 7.9 mg ZnSO4, 7H2O (Sigma), 0.1 mg H3BO3 (Merck), 0.14 mg NaMoO4, 2H2O (Sigma), 2 mg thiamine (Sigma), 0.1 mg biotine (VWR), 4 mg FeSO4, 7H2O (Sigma), QSP 1 liter • Inoculum: spores suspension
Fungicides were solubilized in DMSO and the solution used to prepare the required range of concentrations. The final concentration of DMSO used in the assay was ≤1%.
A spore suspension of F. culmorum was prepared and diluted to the desired spore density.
Fungicides were evaluated for their ability to inhibit spore germination and mycelium growth in liquid culture assay. The compounds were added in the desired concentration to the culture medium with spores. After 5 days incubation, fungi-toxicity of compounds was determined by spectrometric measurement of mycelium growth. Inhibition of fungal growth was determined by comparing the absorbance values in wells containing the fungicides with the absorbance in control wells without fungicides.

SMILES	pest or weed control at 500 ppm (Alternaria brassicae) [%]	inhibition at 20 ppm [1] [%]	pest or weed control at 500 ppm (Botrytis cinerea [2]) [%]	chromatographic logP [3]	inhibition at 20 ppm (Botrytis cinerea [4]) [%]	inhibition at 20 ppm (Alternaria alternata; 20 ppm of active ingredient) [%]	inhibition at 20 ppm (Pyrenophora teres; 20 ppm of active ingredient) [%]	inhibition at 20 ppm (Pyricularia oryzae; read-out: efficacy (inhibition of fungal growth), 20 ppm of active ingredient, liquid culture, 5 days incubation) [%]	inhibition at 50 µM (Fusarium culmorum) [%]	inhibition at 50 µM [1] [%]	inhibition at 50 µM (Pyrenophora teres) [%]	inhibition at 50 µM (Alternaria alternata) [%]	inhibition at 50 µM (Botrytis cinerea [4]) [%]	inhibition at 50 µM (Pyricularia oryzae) [%]
COc1cccc(Sc2nnc3ccccc3c2C2=NOC[C@@H](Cc3ccc(C)cc3C)N2)c1 (racemic) [Compound I-006]	90 to 100	90 to 100	90 to 100	3.84	90 to 100	–	–	–	–	–	–	–	–	–
Cc1cccc(Sc2nnc(Cl)cc2C2=NOC[C@@H](Cc3ccc(Cl)cc3Cl)N2)c1 (racemic) [Compound I-014]	–	–	–	4.59	90 to 100	70 to 79	–	–	–	–	–	–	–	–
Clc1cccc(Sc2nnc(Cl)cc2C2=NOC[C@@H](Cc3ccc(Cl)cc3Cl)N2)c1 (racemic) [Compound I-015]	80 to 89	90 to 100	90 to 100	4.73	90 to 100	–	90 to 100	90 to 100	–	–	–	–	–	–
Cc1cc([C@H]2CON=C(c3c(Sc4ccccn4)nnc(C)c3C)N2)c(C)s1 (racemic) [Compound I-036]	–	–	–	2.32	–	–	–	–	90 to 100	90 to 100	70 to 79	–	–	–
COc1ccc(Sc2nnc(C)c(C)c2C2=NOC[C@@H](c3cc(C)sc3C)N2)cc1 (racemic) [Compound I-049]	–	–	–	3.11	–	–	–	–	–	–	70 to 79	70 to 79	–	–
Cc1ccc([C@H]2CON=C(c3c(Sc4ccc(F)cc4)nnc4ccccc34)N2)s1 (racemic) [Compound I-060]	70 to 79	–	90 to 100	3.29	–	–	–	–	70 to 79	–	70 to 79	–	90 to 100	–
Cc1ccc([C@H]2CON=C(c3c(Sc4ccc(F)c(Cl)c4)nnc4ccccc34)N2)s1 (racemic) [Compound I-068]	80 to 89	–	90 to 100	3.74	–	–	–	–	–	90 to 100	70 to 79	–	90 to 100	–
Cc1ccc([C@H]2CON=C(c3c(Sc4ccc(C)c(C)c4)nnc4ccccc34)N2)s1 (racemic) [Compound I-080]	–	–	90 to 100	3.76	–	–	–	–	90 to 100	–	–	–	90 to 100	80 to 89
Cc1cc([C@H]2CON=C(c3c(Sc4ccc(F)c(Cl)c4)nnc(C)c3C)N2)c(C)s1 (racemic) [Compound I-088]	70 to 79	–	90 to 100	3.62	–	–	–	–	–	90 to 100	–	–	90 to 100	–
Cc1cccc(Sc2nnc(C)c(C)c2C2=NOC[C@H](c3cc(C)sc3C)N2)n1 (racemic) [Compound I-089]	70 to 79	–	80 to 89	2.56	–	–	–	–	–	–	–	–	70 to 79	–
Cc1cc([C@H]2CON=C(c3c(Sc4ccc(C)c(C)c4)nnc(C)c3C)N2)c(C)s1 (racemic) [Compound I-111]	–	–	80 to 89	3.64	–	–	–	–	90 to 100	90 to 100	90 to 100	70 to 79	90 to 100	–
Cc1cc([C@@H]2CON=C(c3c(Sc4cccc(Cl)c4Cl)nnc(C)c3C)N2)c(C)s1 (racemic) [Compound I-118]	–	–	–	3.7	–	–	–	–	–	80 to 89	90 to 100	90 to 100	90 to 100	80 to 89
Cc1cc([C@@H]2CON=C(c3c(Sc4ccccc4C)nnc(C)c3C)N2)c(C)s1 (racemic) [Compound I-121]	80 to 89	–	90 to 100	3.29	–	–	–	–	–	–	–	–	90 to 100	–
Cc1cc([C@@H]2CON=C(c3c(Sc4ccc5ccccc5c4)nnc(C)c3C)N2)c(C)s1 (racemic) [Compound I-122]	–	–	–	3.68	–	–	–	–	90 to 100	70 to 79	80 to 89	70 to 79	–	–
Cc1ccc([C@H]2CON=C(c3c(Sc4ccc(F)c(F)c4)nnc4ccccc34)N2)s1 (racemic) [Compound I-124]	80 to 89	–	90 to 100	3.44	–	–	–	–	80 to 89	70 to 79	–	–	90 to 100	70 to 79
Cc1ccc([C@H]2CON=C(c3c(Sc4cccc(OC(F)(F)F)c4)nnc4ccccc34)N2)s1 (racemic) [Compound I-133]	–	–	90 to 100	3.92	–	–	–	–	70 to 79	90 to 100	–	–	90 to 100	70 to 79
Cc1ccc([C@@H]2CON=C(c3c(Sc4cccc(Cl)c4Cl)nnc(C)c3C)N2)s1 (racemic) [Compound I-136]	–	–	–	3.31	–	–	–	–	–	–	90 to 100	80 to 89	90 to 100	70 to 79
